Counter-ions that a name gives are not always drawn.

For this assay, the system named is MMP-13. Nature of the assay: MMP-13 production inhibition test. Format: cell-based. The following applies: 30 μmol/L; human cartilage derived cell line SW1353, IL-1β 10 ng/mL, 16 hours after stimulation, MMP-13 in culture supernatant by ELISA; read-out: Inhibition rate (%) at 30 μmol/L. The procedure: MMP-13 Production Inhibition Test
6.8×10^3 human cartilage derived cell line SW1353 cells were suspended in 100 μL of Dulbecco modified Eagle's medium supplemented with 10% fetal calf serum, plated on 96-well plates and cultured for 3 days. After the culture medium was changed to Dulbecco modified Eagle's medium containing 0.2% lactalbumin hydrolysate and the cells were cultured for 6 hours, test compounds were added and then IL-1β was added to obtain the final concentration of 10 ng/mL 1 hour later. 16 hours after the stimulation, supernatant was collected and the amount of MMP-13 in the culture supernatant was determined with an ELISA kit (Amersham). The inhibition rate was calculated from the amount of MMP-13 in the presence of a test compound assuming that the amount of MMP-13 was 100% in the absence of the test compound.
As to `COc1ccccc1-c1ccc(C(=O)O)c(Nc2ccc(F)cc2)c1` [Example 3, 2-(4-fluoroanilino)-4-(2-methoxyphenyl)benzoic acid], the inhibition at 30 µM came to 53%.
Under `O=C(O)c1ccc(-c2ccc3c(c2)OCO3)cc1Nc1ccc(F)cc1` [Example 7, 4-(Benzo-1,3-dioxol-5-yl)-2-(4-fluoroanilino)benzoic acid] stands 95%; under `COc1ccc(-c2ccc(C(=O)O)c(Nc3ccc(F)cc3)c2)cc1` [Example 9, 2-(4-fluoroanilino)-4-(4-methoxyphenyl)benzoic acid], 93%; under `CS(=O)(=O)c1ccc(-c2ccc(C(=O)O)c(Nc3ccc(F)cc3)c2)cc1` [Example 11, 2-(4-fluoroanilino)-4-(4-(methanesulfonyl)phenyl)benzoic acid], 62%.
For `CS(=O)(=O)Nc1ccc(-c2ccc(C(=O)O)c(Nc3ccc(F)cc3)c2)cc1` [Example 12, 2-(4-Fluoroanilino)-4-(4-(methanesulfonamido)phenyl)benzoic acid], the inhibition at 30 µM is 75%.
The figure for `O=C(O)c1ccc(-c2ccc3[nH]ccc3c2)cc1Nc1ccc(F)cc1` [Example 13, 2-(4-Fluoroanilino)-4-(1H-indol-5-yl)benzoic acid] is 95%; for `CC(=O)c1ccc(-c2ccc(C(=O)O)c(Nc3ccc(F)cc3)c2)cc1` [Example 15, 4-(4-Acetylphenyl)-2-(4-fluoroanilino)benzoic acid] it is 91%.
On to `O=C(O)c1ccc(-c2ccccc2)cc1Nc1ccc(F)cc1` [Example 37, 2-(4-fluoroanilino)-4-phenylbenzoic acid], for which the inhibition at 30 µM amounted to 92%.
Take `O=C(O)c1ccc(Oc2ccccc2)cc1Nc1ccc2c(c1)OCO2` [Example 43, 2-((Benzo-1,3-dioxol-5-yl)amino)-4-phenoxybenzoic acid]: the inhibition at 30 µM was determined as 93%.
For the compound `COc1ccc(Nc2cc(Oc3ccccc3)ccc2C(=O)O)c(OC)c1` [Example 45, 2-(2,4-Dimethoxyanilino)-4-phenoxybenzoic acid], the inhibition at 30 µM was found to be 73%.
For the compound `O=C(O)c1ccc(Oc2ccccc2)cc1Nc1ccccc1` [Example 46, 2-Anilino-4-phenoxybenzoic acid], the inhibition at 30 µM was determined as 93%.
For the compound `O=C(O)c1ccc(Oc2ccccc2)cc1NC1CCCCC1` [Example 48, 2-(cyclohexylamino)-4-phenoxybenzoic acid], the inhibition at 30 µM was found to be 85%.
Consider `O=C(O)c1ccc(Oc2ccccc2)cc1NCc1ccc(F)cc1` [Example 49, 2-(4-Fluorobenzylamino)-4-phenoxybenzoic acid], for which the inhibition at 30 µM is 85%.
For `O=C(O)c1ccc(Oc2ccccc2)cc1NCc1ccccc1` [Example 52, 2-(benzylamino)-4-phenoxybenzoic acid], the inhibition at 30 µM was found to be 77%.
On to `O=C(O)c1ccc(Nc2ccccc2)cc1Nc1ccc(F)cc1` [Example 63, 4-anilino-2-(4-fluoroanilino)benzoic acid], for which the inhibition at 30 µM worked out at 67%.
As to `O=C(O)c1ccc(NCc2ccccc2)cc1Nc1ccc(F)cc1` [Example 67, 4-(benzylamino)-2-(4-fluoroanilino)benzoic acid], the inhibition at 30 µM was 67%.
As for `O=C(O)c1ccc(NCCCc2ccccc2)cc1Nc1ccc(F)cc1` [Example 69, 2-(4-Fluoroanilino)-4-((3-phenylpropyl)amino)benzoic acid], the inhibition at 30 µM was 94%.
As for `O=C(O)c1ccc(CCCc2ccccc2)cc1Nc1ccc(F)cc1` [Example 81, 2-(4-fluoroanilino)-4-(3-phenylpropyl)benzoic acid], the inhibition at 30 µM came to 97%.
The figure for `O=C(O)c1ccc(NC(=O)c2csc3ccccc23)cc1Nc1ccc(F)cc1` [Example 87, 4-(benzothiophene-3-carboxamido)-2-(4-fluoroanilino)benzoic acid] is 97%; for `O=C(O)c1ccc(NS(=O)(=O)c2ccccc2)cc1Nc1ccc(F)cc1` [Example 91, 4-(Benzenesulfonamido)-2-(4-fluoroanilino)benzoic acid] it is 53%.
In the case of `O=C(O)c1ccc(/C=C/c2cccc(O)c2)cc1Nc1ccc(F)cc1` [Example 126, 2-(4-fluoroanilino)-4-((E)-2-(3-hydroxyphenyl)vinyl)benzoic acid], the inhibition at 30 µM is 94%.
On to `O=C(O)c1ccc(/C=C/c2ccc(F)cc2)cc1Nc1ccc(F)cc1` [Example 132, 2-(4-Fluoroanilino)-4-((E)-2-(4-fluorophenyl)vinyl)benzoic acid], for which the inhibition at 30 µM was 95%.
For `O=C(O)c1ccc(/C=C/c2ccc3c(c2)OCO3)cc1Nc1ccc(F)cc1` [Example 140, 4-((E)-2-(Benzo-1,3-dioxol-5-yl)vinyl)-2-(4-fluoroanilino)benzoic acid], the inhibition at 30 µM was determined as 93%.
In the case of `COc1ccc(CCc2ccc(C(=O)O)c(Nc3ccc(F)cc3)c2)cc1` [Example 160, 2-(4-Fluoroanilino)-4-(2-(4-methoxyphenyl)ethyl)benzoic acid], the inhibition at 30 µM was 93%.
For the compound `COc1cccc(CCc2ccc(C(=O)O)c(Nc3ccc(F)cc3)c2)c1` [Example 166, 2-(4-Fluoroanilino)-4-(2-(3-methoxyphenyl)ethyl)benzoic acid], the inhibition at 30 µM was determined as 92%.
The figure for `O=C(O)c1ccc(CCc2ccccc2)cc1Nc1ccccc1C(F)(F)F` [Example 169, 4-phenethyl-2-(2-(trifluoromethyl)anilino)benzoic acid] is 97%; for `O=C(O)c1ccc(CCc2ccccc2)cc1Nc1ccc(C(F)(F)F)cc1` [Example 170, 4-Phenethyl-2-(4-(trifluoromethyl)anilino)benzoic acid] it is 97%; for `Cc1ccc(Nc2cc(CCc3ccccc3)ccc2C(=O)O)c(C)c1` [Example 172, 2-(2,4-Dimethylanilino)-4-phenethylbenzoic acid] it is 97%.
As for `Cc1cccc(Nc2cc(CCc3ccccc3)ccc2C(=O)O)c1C` [Example 173, 2-(2,3-Dimethylanilino)-4-phenethylbenzoic acid], the inhibition at 30 µM came out at 97%.
The figure for `COc1ccccc1Nc1cc(CCc2ccccc2)ccc1C(=O)O` [Example 181, 2-(2-Methoxyanilino)-4-phenethylbenzoic acid] is 97%; for `COc1ccc(Nc2cc(-c3ccccc3)ccc2C(=O)O)cc1` [Example 185, 2-(4-methoxyanilino)-4-phenylbenzoic acid] it is 79%.
With `O=C(O)c1ccc(-c2ccccc2)cc1Nc1ccc(OC(F)(F)F)cc1` [Example 190, 4-Phenyl-2-(4-(trifluoromethoxy)anilino)benzoic acid], the inhibition at 30 µM was determined as 97%.
As for `O=C(O)c1ccc(-c2ccccc2)cc1Nc1cccc(OC(F)(F)F)c1` [Example 191, 4-Phenyl-2-(3-(trifluoromethoxy)anilino)benzoic acid], the inhibition at 30 µM is 97%.
Regarding `O=C(O)c1ccc(CCc2ccccc2)cc1Nc1ccccc1OC(F)(F)F` [Example 199, 4-Phenethyl-2-(2-(trifluoromethoxy)anilino)benzoic acid], the inhibition at 30 µM was 97%.
For the compound `O=C(O)c1ccc(CCc2ccccc2)cc1Nc1cccc(Cl)c1` [Example 200, 2-(3-chloroanilino)-4-phenethylbenzoic acid], the inhibition at 30 µM is 97%.
The figure for `COc1ccc(-c2ccc(C(=O)O)c(Nc3ccc(F)cc3)c2)cc1OC` [Example 209, 4-(3,4-Dimethoxyphenyl)-2-(4-fluoroanilino)benzoic acid] is 82%; for `Cc1ccc(-c2ccc(C(=O)O)c(Nc3ccc(F)cc3)c2)cc1C` [Example 214, 4-(3,4-Dimethylphenyl)-2-(4-fluoroanilino)benzoic acid] it is 98%; for `O=C(O)c1ccc(-c2ccccc2OC(F)(F)F)cc1Nc1ccc(F)cc1` [Example 220, 2-(4-Fluoroanilino)-4-(2-(trifluoromethoxy)phenyl)benzoic acid] it is 98%.
Turning to `O=C(O)c1ccc(-c2ccc(OC(F)(F)F)cc2)cc1Nc1ccc(F)cc1` [Example 222, 2-(4-Fluoroanilino)-4-(4-(trifluoromethoxy)phenyl)benzoic acid], the inhibition at 30 µM was 98%.
The figure for `O=C(O)c1ccc(-c2ccc3occc3c2)cc1Nc1ccc(F)cc1` [Example 225, 4-(Benzofuran-5-yl)-2-(4-fluoroanilino)benzoic acid] is 98%.
For `O=C(O)c1ccc(-c2cccc3[nH]ccc23)cc1Nc1ccc(F)cc1` [Example 234, 2-(4-fluoroanilino)-4-(1H-indol-4-yl)benzoic acid], the inhibition at 30 µM worked out at 97%.
The figure for `O=C(O)c1ccc(N2CCc3ccccc32)cc1Nc1ccc(F)cc1` [Example 243, 2-(4-fluoroanilino)-4-(indolin-1-yl)benzoic acid] is 97%; for `O=C(O)c1ccc(-n2cnc3ccccc32)cc1Nc1ccc(F)cc1` [Example 248, 4-(1H-benzimidazol-1-yl)-2-(4-fluoroanilino)benzoic acid trifluoroacetate] it is 84%; for `Cc1ccc(CCc2ccc(C(=O)O)c(Nc3ccc(F)cc3)c2)cc1` [Example 252, 2-(4-Fluoroanilino)-4-(2-(4-methylphenyl)ethyl)benzoic acid] it is 96%.
Turning to `O=C(O)c1ccc(CCc2ccc(OC(F)(F)F)cc2)cc1Nc1ccc(F)cc1` [Example 259, 2-(4-fluoroanilino)-4-(2-(4-(trifluoromethoxy)phenyl)ethyl)benzoic acid], the inhibition at 30 µM came to 96%.

(Values after patent publication US8327467B2, “Anthranilic acid derivative or salt thereof” (Toyama Chemical Co., Ltd., priority 2005, dated 2012).)
